Reference: PubChem BioAssay AID192 (DTP/NCI, 2004)
Several values for one entry are separate records, joined by “and”; a condition that tells them apart may be missing. Identical values can stand only once. Inconclusive results and toxic doses are left out.

Test system: BDF1 mice, B16 melanoma ip, median survival T/C
Experiment: NCI In Vivo Anticancer Drug Screen. Data for tumor model B16 Melanoma (intraperitoneal) in B6D2F1 (BDF1) mice
Conditions: endpoint: median survival time, higher = longer survival
Method in brief: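 Each result divides a survival or tumor-size measurement in the compound-treated group by the same measurement in the vehicle group.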

[1] = dose: 200.0 mg/kg/injection, schedule: Q01DX009 (ip), vehicle: saline

Structure (SMILES): O=CC(NC(=O)N(CCCl)N=O)C(O)C(O)C(O)CO (stereo not given)
- T/C (dose: 1.3 mg/kg/injection, schedule: Q01DX009 (ip), vehicle: saline): 153 % of control
- T/C (dose: 3.0 mg/kg/injection, schedule: Q01DX009 (ip), vehicle: saline): 101 % of control and 201 % of control
- T/C (dose: 4.0 mg/kg/injection, schedule: Q01DX009 (ip), vehicle: saline): 198 % of control
- T/C (dose: 4.5 mg/kg/injection, schedule: Q01DX009 (ip), vehicle: saline): 109 % of control and 201 % of control
- T/C (dose: 6.25 mg/kg/injection, schedule: Q01DX001 (ip), vehicle: saline): 154 % of control
- T/C (dose: 6.7 mg/kg/injection, schedule: Q01DX009 (ip), vehicle: saline): 287 % of control
- T/C (dose: 7.5 mg/kg/injection, schedule: Q01DX001 (ip), vehicle: saline with Tween-80): 184 % of control
- T/C (dose: 8.0 mg/kg/injection, schedule: Q01DX009 (ip), vehicle: saline): 91 % of control
- T/C (dose: 10.0 mg/kg/injection, schedule: Q01DX009 (ip), vehicle: saline): 159 % of control
- T/C (dose: 12.5 mg/kg/injection, schedule: Q01DX001 (ip), vehicle: saline): 191 % of control
- T/C (dose: 13.0 mg/kg/injection, schedule: Q01DX001 (ip), vehicle: saline): 201 % of control
- T/C (dose: 15.0 mg/kg/injection, schedule: Q01DX001 (ip), vehicle: saline with Tween-80): 284 % of control
- T/C (dose: 20.0 mg/kg/injection, schedule: Q01DX001 (ip), vehicle: saline): 163 % of control and 259 % of control
- T/C (dose: 25.0 mg/kg/injection, schedule: Q01DX001 (ip), vehicle: saline): 277 % of control
- T/C (dose: 30.0 mg/kg/injection, schedule: Q01DX001 (ip), vehicle: saline with Tween-80): 285 % of control
- T/C (dose: 30.0 mg/kg/injection, schedule: Q01DX001 (ip), vehicle: saline): 114 % of control and 287 % of control
- T/C (dose: 67.0 mg/kg/injection, schedule: Q01DX001 (ip), vehicle: saline): 287 % of control

Structure (SMILES): Cc1ccc(NC(=O)Nc2ccccc2Cl)cc1Cl
- T/C (dose: 50.0 mg/kg/injection, schedule: Q01DX009 (ip), vehicle: Klucel (hydroxypropylcellulose) (HPC)): 100 % of control
- T/C (dose: 100.0 mg/kg/injection, schedule: Q01DX009 (ip), vehicle: Klucel (hydroxypropylcellulose) (HPC)): 104 % of control

Structure (SMILES): COc1cc([C@@H]2c3cc4c(c(O)c3C[C@H]3COC(=O)[C@@H]32)OCO4)cc(OC)c1O
- T/C (dose: 0.12 mg/kg/injection, schedule: Q01DX009 (ip), vehicle: saline): 97 % of control
- T/C (dose: 0.12 mg/kg/injection, schedule: Q01DX009 (ip), vehicle: suspension in saline): 100 % of control
- T/C (dose: 0.25 mg/kg/injection, schedule: Q01DX009 (ip), vehicle: saline): 97 % of control
- T/C (dose: 0.25 mg/kg/injection, schedule: Q01DX009 (ip), vehicle: suspension in saline): 96 % of control
- T/C (dose: 0.5 mg/kg/injection, schedule: Q01DX009 (ip), vehicle: saline): 107 % of control
- T/C (dose: 0.5 mg/kg/injection, schedule: Q01DX009 (ip), vehicle: suspension in saline): 105 % of control
- T/C (dose: 1.0 mg/kg/injection, schedule: Q01DX009 (ip), vehicle: saline): 95 % of control

Structure (SMILES): CC(C)[C@](O)(C(=O)OCC1=CC[N+]2([O-])CC[C@@H](O)[C@@H]12)[C@H](C)O (stereo not given in full)
- T/C (dose: 12.5 mg/kg/injection, schedule: Q01DX009 (ip), vehicle: water): 105 % of control
- T/C (dose: 16.0 mg/kg/injection, schedule: Q03HX008 (ip), vehicle: water): 93 % of control
- T/C (dose: 16.0 mg/kg/injection, schedule: Q03HX016 (ip), vehicle: water): 96 % of control
- T/C (dose: 16.0 mg/kg/injection, schedule: Q03HX024 (ip), vehicle: water): 96 % of control
- T/C (dose: 25.0 mg/kg/injection, schedule: Q01DX009 (ip), vehicle: water): 117 % of control
- T/C (dose: 32.0 mg/kg/injection, schedule: Q03HX008 (ip), vehicle: water): 99 % of control
- T/C (dose: 32.0 mg/kg/injection, schedule: Q03HX016 (ip), vehicle: water): 94 % of control
- T/C (dose: 32.0 mg/kg/injection, schedule: Q03HX024 (ip), vehicle: water): 100 % of control
- T/C (dose: 64.0 mg/kg/injection, schedule: Q01DX009 (ip), vehicle: saline): 113 % of control
- T/C (dose: 64.0 mg/kg/injection, schedule: Q01DX009 (ip), vehicle: water): 103 % of control
- T/C (dose: 64.0 mg/kg/injection, schedule: Q03HX008 (ip), vehicle: water): 108 % of control
- T/C (dose: 64.0 mg/kg/injection, schedule: Q03HX016 (ip), vehicle: water): 108 % of control
- T/C (dose: 64.0 mg/kg/injection, schedule: Q03HX024 (ip), vehicle: water): 120 % of control
- T/C (dose: 100.0 mg/kg/injection, schedule: Q01DX009 (ip), vehicle: saline sonified): 104 % of control
- T/C (dose: 128.0 mg/kg/injection, schedule: Q01DX001 (ip), vehicle: water): 103 % of control
- T/C (dose: 128.0 mg/kg/injection, schedule: Q01DX009 (ip), vehicle: saline): 113 % of control
- T/C (dose: 128.0 mg/kg/injection, schedule: Q01DX009 (ip), vehicle: water): 119 % of control
- T/C (dose: 128.0 mg/kg/injection, schedule: Q01DX009 (oral), vehicle: water): 95 % of control and 101 % of control
- T/C (dose: 128.0 mg/kg/injection, schedule: Q03HX008 (ip), vehicle: water): 123 % of control
- T/C (dose: 128.0 mg/kg/injection, schedule: Q04DX003 (ip), vehicle: water): 102 % of control
- T/C (dose: 128.0 mg/kg/injection, schedule: Q08DX002 (ip), vehicle: water): 105 % of control
- T/C (dose: 228.0 mg/kg/injection, schedule: Q01DX009 (ip), vehicle: saline): 119 % of control
- T/C (dose: 256.0 mg/kg/injection, schedule: Q01DX009 (oral), vehicle: water): 93 % of control and 96 % of control
- T/C (dose: 256.0 mg/kg/injection, schedule: Q03HX016 (ip), vehicle: water): 150 % of control
- T/C (dose: 256.0 mg/kg/injection, schedule: Q04DX003 (ip), vehicle: water): 106 % of control
- T/C (dose: 256.0 mg/kg/injection, schedule: Q08DX002 (ip), vehicle: water): 118 % of control
- T/C (dose: 512.0 mg/kg/injection, schedule: Q01DX001 (ip), vehicle: water): 113 % of control
- T/C (dose: 512.0 mg/kg/injection, schedule: Q01DX009 (ip), vehicle: water): 150 % of control and 182 % of control
- T/C (dose: 512.0 mg/kg/injection, schedule: Q01DX009 (oral), vehicle: water): 94 % of control and 95 % of control
- T/C (dose: 512.0 mg/kg/injection, schedule: Q08DX002 (ip), vehicle: water): 123 % of control
- T/C (dose: 600.0 mg/kg/injection, schedule: Q01DX009 (ip), vehicle: water): 163 % of control
- T/C (dose: 768.0 mg/kg/injection, schedule: Q01DX009 (ip), vehicle: saline): 100 % of control
- T/C (dose: 800.0 mg/kg/injection, schedule: Q01DX009 (ip), vehicle: saline sonified): 150 % of control
- T/C (dose: 1024.0 mg/kg/injection, schedule: Q01DX009 (oral), vehicle: water): 97 % of control and 99 % of control
- T/C (dose: 2048.0 mg/kg/injection, schedule: Q08DX002 (ip), vehicle: water): 169 % of control

Structure (SMILES): O=c1[nH][nH]c(=O)n1O
- T/C (dose: 130.0 mg/kg/injection, schedule: Q01DX009 (ip), vehicle: saline): 112 % of control
- T/C [1]: 103 % of control
- T/C (dose: 300.0 mg/kg/injection, schedule: Q01DX009 (ip), vehicle: saline): 115 % of control

Structure (SMILES): CCc1ccc(C(C)(C)C)cc1
- T/C (dose: 25.0 mg/kg/injection, schedule: Q04DX003 (ip), vehicle: Klucel (hydroxypropylcellulose) (HPC)): 103 % of control
- T/C (dose: 50.0 mg/kg/injection, schedule: Q04DX003 (ip), vehicle: Klucel (hydroxypropylcellulose) (HPC)): 93 % of control
- T/C (dose: 100.0 mg/kg/injection, schedule: Q04DX003 (ip), vehicle: Klucel (hydroxypropylcellulose) (HPC)): 101 % of control
- T/C (dose: 200.0 mg/kg/injection, schedule: Q04DX003 (ip), vehicle: Klucel (hydroxypropylcellulose) (HPC)): 100 % of control

Structure (SMILES): N#CO
- T/C (dose: 18.7 mg/kg/injection, schedule: Q01DX009 (ip), vehicle: saline): 100 % of control
- T/C (dose: 37.5 mg/kg/injection, schedule: Q01DX009 (ip), vehicle: saline): 105 % of control
- T/C (dose: 75.0 mg/kg/injection, schedule: Q01DX009 (ip), vehicle: saline): 105 % of control

Structure (SMILES): CC(=O)CC(=O)OCc1ccccc1
- T/C (dose: 100.0 mg/kg/injection, schedule: Q01DX009 (ip), vehicle: saline with Tween-80): 107 % of control
- T/C (dose: 200.0 mg/kg/injection, schedule: Q01DX009 (ip), vehicle: saline with Tween-80): 105 % of control
- T/C (dose: 400.0 mg/kg/injection, schedule: Q01DX009 (ip), vehicle: saline with Tween-80): 100 % of control

Structure (SMILES): COc1cc(C=O)cc(O)c1O
- T/C (dose: 100.0 mg/kg/injection, schedule: Q01DX009 (ip), vehicle: saline): 95 % of control
- T/C [1]: 111 % of control

Structure (SMILES): Nc1nc2nc[nH]c2c(=O)[nH]1
- T/C (dose: 25.0 mg/kg/injection, schedule: Q01DX009 (ip), vehicle: suspension in saline): 95 % of control
- T/C (dose: 50.0 mg/kg/injection, schedule: Q01DX009 (ip), vehicle: suspension in saline): 97 % of control
- T/C (dose: 100.0 mg/kg/injection, schedule: Q01DX009 (ip), vehicle: suspension in saline): 88 % of control
- T/C (dose: 200.0 mg/kg/injection, schedule: Q01DX009 (ip), vehicle: suspension in saline): 86 % of control
